This passage reports IC50 results from US7981913B2, “Isophthalates as beta-secretase inhibitors” (Bristol-Myers Squibb Company, priority 2005, dated 2011).

The target of the experiment is T1, BACE1 enzyme (Homo sapiens, UniProt P56817).
T1 construct: The HEK293-9B.A1 cell line, which overexpresses the BACE1 enzyme, was derived from HEK293 cells; endogenous in cells; washed 48,000 x g membrane pellet / cell homogenate
Description: Radioligand displacement assay with a radiolabeled BACE inhibitor on HEK293-9B.A1 cell homogenate. Type of experiment: binding. The conditions noted are these: displacement of 1 nM tritiated radioligand, HEK293-9B.A1 homogenate, pH 5.0, 1.5 hr at 25° C.; read-out: Activity Rating (based on IC50 values). The source says: There are a number of methods by which inhibitors of the BACE enzyme can be identified experimentally. The enzyme can be obtained from membrane samples from natural tissues or cultured cells or can be expressed recombinantly in a host cell by well known methods of molecular biology. The whole enzyme or a portion thereof can be expressed, for example, in bacterial, insect or mammalian cells to obtain a catalytically active enzyme species. The enzymatic activity and/or ligand binding capability of the enzyme can be assessed within these membrane samples, or the enzyme can be purified to varying extents. As an illustrative example, the nucleic acid sequence encoding the pro and catalytic domains of human BACE can be appended on the 5′ end with an untranslated and signal sequence from the gene for acetylcholinesterase, and on the 3′ end with a sequence encoding a poly-histidine tag. This cDNA can then be expressed in Drosophila melanogaster S2 cells in which the signal and pro sequences of the transcribed/translated protein are removed by cellular proteases and the catalytic domain, appended by a C-terminal poly-histidine tag, is secreted out into the cellular medium. The enzyme can then be purified from the culture medium by nickel affinity chromatography by methods well known to those trained in the art [Mallender, W. et al., (2001) “Characterization of recombinant, soluble beta-secretase from an insect cell expression system.” Mol. Pharmacol. 59: 619-626]. Similar strategies for expressing and purifying various forms of BACE in bacterial, mammalian and other cell types would be known to one skilled in the art. A preferred method for determining the potency of a test compound in binding to the BACE enzyme is by monitoring the displacement of a suitable radioligand.
Radioligand displacement assays with a radiolabeled BACE inhibitor (WO 2004 013098, compound 3, where the methoxy group is substituted for C(^3H)3) were carried out using standard methods (Keen, M. (1999) in Receptor Binding Techniques (Walker, J. M. ed) p. 106 Humana Press, Totowa, N.J.). The HEK293-9B.A1 cell line, which overexpresses the BACE1 enzyme, was derived from HEK293 cells (Simmons, N. L. (1990) A cultured human renal epithelioid cell line responsive to vasoactive intestinal peptide. Exp. Physiol. 75:309-19.) by RAGE™ (Harrington, J. J. et al. (2001) Creation of genome-wide protein expression libraries using random activation of gene expression. Nat. Biotechnol. 19:440-5; U.S. Pat. Nos. 6,410,266 and 6,361,972). […]

pIC50: −log10 of the molar value.

T1 sequence (P56817 46-501): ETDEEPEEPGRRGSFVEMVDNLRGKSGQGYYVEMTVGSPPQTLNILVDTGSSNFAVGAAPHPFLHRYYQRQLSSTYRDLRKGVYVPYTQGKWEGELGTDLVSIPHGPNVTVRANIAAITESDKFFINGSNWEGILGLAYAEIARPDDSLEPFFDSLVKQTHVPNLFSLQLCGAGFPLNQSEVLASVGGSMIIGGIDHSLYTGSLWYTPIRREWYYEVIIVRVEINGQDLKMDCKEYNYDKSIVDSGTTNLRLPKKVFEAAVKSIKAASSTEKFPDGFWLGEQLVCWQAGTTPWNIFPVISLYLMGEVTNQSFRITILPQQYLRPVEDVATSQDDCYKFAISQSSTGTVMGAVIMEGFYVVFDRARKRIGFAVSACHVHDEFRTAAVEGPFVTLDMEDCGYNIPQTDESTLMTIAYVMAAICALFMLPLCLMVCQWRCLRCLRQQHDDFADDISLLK

For the compound `CCCO[C@H]1CN[C@@H]([C@@H](O)[C@H](Cc2cc(F)cc(F)c2)NC(=O)c2cc(C(=O)N(CCC)CCC)cc(-c3ncco3)c2)C1` [Example 12, N^1-((1R,2S)-3-(3,5-difluorophenyl)-1-hydroxy-1-((2R,4R)-4-propoxypyrrolidin-2-yl)propan-2-yl)-5-(oxazol-2-yl)-N^3,N^3-dipropylisophthalamide], the negative logarithm of the IC50 (pIC50) is over 7.00.
The value for `CCCCN(C)C(=O)c1cccc(C(=O)N[C@@H](Cc2cc(F)cc(F)c2)[C@H](O)[C@H]2CC(c3ccccc3)CN2)c1` (stereo partly drawn) [Example 7, N^1-butyl-N^3-((1R,2S)-3-(3,5-difluorophenyl)-1-hydroxy-1-((2R)-4-phenylpyrrolidin-2-yl)propan-2-yl)-N^1-methylisophthalamide] was 6.00 to 7.00.
Consider `CCCN(CCC)C(=O)c1cc(C(=O)N[C@@H](Cc2ccccc2)[C@H](O)[C@H]2C[C@@H](S(=O)(=O)CCC)CN2)cc(-c2ncco2)c1` [Example 17, N^1-((1R,2S)-1-hydroxy-3-phenyl-1-((2R,4R)-4-(propylsulfonyl)pyrrolidin-2-yl)propan-2-yl)-5-(oxazol-2-yl)-N^3,N^3-dipropylisophthalamide], for which the pIC50 was over 7.00.
For `CCCO[C@H]1CN[C@@H]([C@@H](O)[C@H](Cc2cc(F)cc(F)c2)NC(=O)c2cc(C(=O)N3CCC[C@@H]3COC)cc(-c3ncco3)c2)C1` [Example 11, N-((1R,2S)-3-(3,5-difluorophenyl)-1-hydroxy-1-((2R,4R)-4-propoxypyrrolidin-2-yl)propan-2-yl)-3-((R)-2-(methoxymethyl)pyrrolidine-1-carbonyl)-5-(oxazol-2-yl)benzamide], the pIC50 was over 7.00.
